Test results taken from patent US7884234B2, “N-phenyloxamide derivatives” (Institute of Medicinal Molecular Design, inc., priority 2006, dated 2011).

Biological target: T1, recombinant human PAI-1 (Homo sapiens, UniProt P05121)
T1 construct: purchased Molecular Innovations, Inc
Test: Test Example 1: human PAI-1 inhibitory activity (tPA fluorogenic substrate assay, pH7.5 Tris buffer)
Format: biochemical
Settings: read-out: Inhibition Rate of Human PAI-1 Activity (%); for inhibition at 5 µM: pH 7.5, compound 5 μM; for inhibition at 10 µM: pH 7.5, compound 10 μM; for inhibition at 25 µM: pH 7.5, compound 25 μM
Excerpt: <Composition of pH7.5 Tris Buffer)
0.01% Tween80 (SIGMA-ALDRICH Corporation)

T1 sequence (P05121 24-402): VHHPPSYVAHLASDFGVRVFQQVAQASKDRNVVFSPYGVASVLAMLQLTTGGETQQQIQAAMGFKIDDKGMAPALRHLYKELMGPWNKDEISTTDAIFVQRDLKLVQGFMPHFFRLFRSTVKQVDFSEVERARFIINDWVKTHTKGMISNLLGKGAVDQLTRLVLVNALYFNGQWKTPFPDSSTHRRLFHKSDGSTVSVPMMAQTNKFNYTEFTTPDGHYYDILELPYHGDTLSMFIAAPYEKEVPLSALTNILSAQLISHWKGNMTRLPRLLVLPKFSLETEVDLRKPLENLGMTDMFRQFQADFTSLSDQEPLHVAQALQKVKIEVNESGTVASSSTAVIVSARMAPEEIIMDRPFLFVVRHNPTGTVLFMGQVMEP

Row | inhibition at 5 µM [%] | inhibition at 10 µM [%] | inhibition at 25 µM [%] | Compound
1 | 15 | 38 | 81 | O=C(O)C(=O)N(Cc1ccc(C(F)(F)F)cc1)c1ccc(-c2ccc(OC(F)(F)F)cc2)cc1 [compound 34, N-[4′-(trifluoromethoxy)biphenyl-4-yl]-N-[4-(trifluoromethyl)benzyl]oxamic Acid]
2 | 25 | 56 | 96 | CC(C)(C)c1ccccc1N(C(=O)C(=O)O)c1ccccc1-c1ccc(OC(F)(F)F)cc1 [compound 37, N-[2-(tert-butyl)phenyl]-N-[4′-(trifluoromethoxy)biphenyl-2-yl]oxamic Acid]
